Reference: publication PMC4513223 (Clinical Pharmacokinetics, 2015)
Where two headings read alike, the source gives them in different places.

How the values were obtained:
[1] = Non-compartmental plasma pharmacokinetics after a single oral filgotinib dose; format: in vivo; conditions: male, human
[2] = format: in vivo, human; conditions: for Tmax / AUC(0-t) / Cmax / concentration at 12 h / concentration at 24 h: oral
[3] = Population pharmacokinetic model; format: in vivo, human; conditions: estimate (% RSE)
[4] = system: JAK1 (IL-6-induced STAT1 phosphorylation); format: cell-based, human; conditions: sigmoid Emax model, common to filgotinib and metabolite; estimate (% RSE)
JAK1 = conditions: human whole blood; cited from earlier work

AUC(0-inf) ([1]; 10 mg): 136 ng·h/mL | Cmax ([1]; 10 mg): 35.7 ng/mL | Tmax ([1]; 10 mg): 1 h | half-life ([1]; 10 mg): 6.38 h | AUC(0-inf) ([1]; 25 mg): 348 ng·h/mL | Cmax ([1]; 25 mg): 83 ng/mL | Tmax ([1]; 25 mg): 2.5 h | half-life ([1]; 25 mg): 5.72 h | AUC(0-inf) ([1]; 50 mg): 771 ng·h/mL | Cmax ([1]; 50 mg): 247 ng/mL | Tmax ([1]; 50 mg): 2 h | half-life ([1]; 50 mg): 5.28 h | AUC(0-inf) ([1]; 100 mg): 1740 ng·h/mL | Cmax ([1]; 100 mg): 565 ng/mL | Tmax ([1]; 100 mg): 2 h | half-life ([1]; 100 mg): 4.91 h | AUC(0-inf) ([1]; 200 mg): 4840 ng·h/mL | Cmax ([1]; 200 mg): 1160 ng/mL | Tmax ([1]; 200 mg): 3 h | half-life ([1]; 200 mg): 5.68 h | Tmax ([2]; male, human, plasma): 0.5 to 5 h | AUC(0-t) ([2]; male, human, plasma, 25 mg): 346 ng·h/mL | Cmax ([2]; male, human, plasma, 25 mg): 144 ng/mL | Tmax ([2]; male, human, plasma, 25 mg): 0.5 h | concentration at 12 h ([2]; male, human, plasma, 25 mg): 3.75 ng/mL | AUC(0-t) ([2]; male, human, plasma, 50 mg): 758 ng·h/mL | Cmax ([2]; male, human, plasma, 50 mg): 211 ng/mL | Tmax ([2]; male, human, plasma, 50 mg): 1.5 h | concentration at 12 h ([2]; male, human, plasma, 50 mg): 9.52 ng/mL | AUC(0-t) ([2]; male, human, plasma, 100 mg): 2380 ng·h/mL | Cmax ([2]; male, human, plasma, 100 mg): 556 ng/mL | Tmax ([2]; male, human, plasma, 100 mg): 3 h | concentration at 12 h ([2]; male, human, plasma, 100 mg): 27.8 ng/mL | AUC(0-t) ([2]; male, human, plasma, 200 mg): 4450 ng·h/mL | Cmax ([2]; male, human, plasma, 200 mg): 1200 ng/mL | Tmax ([2]; male, human, plasma, 200 mg): 2 h | concentration at 24 h ([2]; male, human, plasma, 200 mg): 6.04 ng/mL | AUC(0-t) ([2]; male, human, plasma, 300 mg): 4400 ng·h/mL | Cmax ([2]; male, human, plasma, 300 mg): 1380 ng/mL | Tmax ([2]; male, human, plasma, 300 mg): 1.5 h | concentration at 24 h ([2]; male, human, plasma, 300 mg): 9.93 ng/mL | AUC(0-t) ([2]; male, human, plasma, 450 mg): 10200 ng·h/mL | Cmax ([2]; male, human, plasma, 450 mg): 2580 ng/mL | Tmax ([2]; male, human, plasma, 450 mg): 2.5 h | concentration at 24 h ([2]; male, human, plasma, 450 mg): 17.6 ng/mL | half-life ([2]; male, human, plasma, po, elimination half-life, average, oral administration): 6 h | accumulation at steady state ([2]; repeated dosing): no accumulation | time to steady state of plasma concentrations ([2]; repeated dosing, regardless of dose and regimen (once or twice daily)): ≤ 2 days | Effect of sex (on V C/F) ([3]; covariate effect): 2.95 (47.7) | Relative increase in bioavailability in RA patients vs healthy volunteers [3]: 0.216 (39.0) | ka (first-order absorption rate constant) ([3]; log-transformed parameter): −0.733 (5.64) /h | FRAC300 mg ([3]; probit-transformed parameter, 300 mg dose): 0.375 (23.9) | FRAC450 mg ([3]; probit-transformed parameter, 450 mg dose): 0.363 (38.5)
SMILES: O=C(Nc1nc2cccc(-c3ccc(CN4CCS(=O)(=O)CC4)cc3)n2n1)C1CC1 [Filgotinib]
log H (hill factor) [4]: 0.680 (27.7) | selectivity for JAK1- over JAK2-dependent signaling (JAK1): 30 fold
